Reference: patent publication US11596647B2, “Administration of synergistic amounts of modified citrus pectin and honokiol to treat inflammation and anti-oxidant needs” (ECONUGENICS INC, priority 2016, dated 2023)

Assay: Antioxidant activity, ABTS microplate assay (Trolox standard)
Assay type: biochemical
Conditions: FIG. 3; result in words
From the text: Since antioxidants neutralize the ROS, antioxidant activity of the nutraceutical would be of importance for product development. The principle underlying the antioxidant assay is formation of a ferryl myoglobin radical from metmyoglobin and hydrogen peroxide, which oxidizes ABTS (2,2′-azino-bis(3-ethylbenzthiazoline-6-sulfonic acid) to produce radical cation, ABTS+, a soluble chromogen that is green in color and can be determined spectrophotometrically at 405 nm. Antioxidants suppress the production of the radical cation in a concentration dependent manner and the color intensity decreases proportionally. Trolox, a water soluble vitamin E analog, is used as a control antioxidant for analyzing the antioxidant activity of other nutraceuticals/compounds. Microplate assay was used for the analysis of antioxidant activity with different products according to the procedure described in the Antioxidant assay kit (Sigma-Aldrich, St. Louis, Mo.). The relative antioxidant concentration (mM equivalent of Trolox standard) was calculated from the absorbance readings.

C=CCc1ccc(O)c(-c2ccc(O)c(CC=C)c2)c1 [H, honokiol]
antioxidant activity (relative ranking): least anti-oxidant activity
